Results: US6057359A, “Spontaneously dispersible concentrates comprising esters of baccatin-III compounds having antitumor and antiviral activity” (Marigen S.A., priority 1997, dated 2000)

Experiments:
HIV strain III B = experiment: Protective effect on MT-4 host cells against HIV infection (MTT); format: cell-based; details: stock ultramicroemulsions, 10^-3 to 10^-4, concentration not stated
Description: MT4-cells (an immortalized T-cell line highly sensitive to HIV cytopathoge-nic effect, CPE) of a 24 h-old culture were suspended at a concentration of 2×10^5 /ml, divided into 1.2 ml aliquotes in polypropylene tubes, and pelleted by centrifugation. Pellets were either infected with 200 μl of a stock solution of HIV strain III B (Titre: 600 CCID50 /ml), or mock-infected with plain medium, for 90 min. at 37° C, upon which 1 ml of plain medium was added to each tube, restoring initial cell concentration and bringing HIV concentration to 100 CCID50 /ml. [CCID50 /ml=50% cell culture infective dose].
100 μl volumes of the MARIGENOL®-Concentrates to be tested, diluted to aqueous microemulsions 10^-3 and then further diluted from 10^-3 to […] in RPMI 1640 medium, or of plain medium, were added in triplicate to flat-bottom, 96-well microtitre plates. […]
Cultures were incubated at 37° C., in a humified atmosphere of 5% CO2 +95% air. Five days after infection, 100 μl of supernatant were removed from each well, and cell viability was assessed by reduction of a methyl-tetrazolium salt (MTT, Sigma, 25 μl/well of a 5 mg/ml solution) in a 2-h incubation test, followed by solubilization with 100 μl DMSO/well and photometric readout of the optical density at 550 nm. Residual cell viability was expressed as percent difference from HIV CPE-control cultures mean readout, considered as zero.

[1] = tested on: HIV isolates from patients (strains 21/4 and 4/5); experiment: Effect on HIV infectivity, residual HIV titre (direct antiviral efficacy); format: cell-based; details: mean titre of 2 strains, 3 h, +4° C.
Description: Aliquote amounts of two HIV isolates from patients (strains 21/4 and 4/5) resuspended in complete RPMI medium at a titre of 300 CCID50 /ml were incubated during 3 hours, +4° C. with MARIGENOL®-concentrate, in the form of an aqueous microemulsion, at concentrations ranging from 10^-2 to 10^-5 in complete medium, as well as with ("empty") carrier concentrate and with medium alone as controls.
After pre-incubation, residual HIV titre was assessed by the CCID50 method (Cell-culture infecting dose 50%). Briefly, serial twofold dilutions were prepared from each of the six virus suspensions, and 200 μl of each dilution were incubated for 90 minutes with MT-4 cell pellets prepared as stated before (see 7.1). At the end of incubation, pellets were brought to initial cell concentration by adding appropriate amounts of complete RPMI medium to each tube, whose content was then distributed into 8 wells of a flat-bottom microtitre plate in 200 μl volumes, each vertical row coresponding to a dilution. After 5 days of incubation, cell viability was assessed by the MTT test as stated above, and the HIV titre was expressed as the reciprocal of that dilution which infects 4 out of 8 wells (50%) in a row. A well was considered infected when its O.D. readout at 550 nm was lower than the average readout of 8 control wells minus 2.8 times the standard error of the mean (lower 95% confidence limit).

human CMV-strain AD169 = experiment: Virucidal efficacy on human cytomegalovirus (immunofluorescence); format: cell-based; details: control 15'000
Description: The assay was conducted with human, embryonic Lung Fibroblasts as host cells, which were then infected with the human CMV-strain AD169.
The virus strain was incubated during 4 h at +4° C. with varying concentrations of the test substance C16:0 -β-Sitosteryl ester, formulated as a 1%-concentrate and diluted to aqueous microemulsions 10^-3, 10^-4 and 10^-5. It was subsequently inoculated on monolayers of human embryonic lung fibroblasts (which are very susceptible to the CMV-virus). These host cells were grown in shell vials in minimal essential medium (MEM, GIBCO, Life Technologies), containing 10% fetal calf serum. A confluent culture was raised with 120,000 cells per shell-vial. The infection was effected by means of centrifugation during 45 minutes at 1'500 rpm at RT. Thereafter, the injection-suspension was eliminated and 1 ml medium MEM+2% FCS was added (same medium as before). The infected cell culture was maintained during 20 h at 37° C., in a 5%-CO2 -atmosphere. […]
Quantification of the virucidal effect was measured with an immunofluorescence assay. […]
This is followed by 3 washing operations with PBS and a second incubation with the fluorescence-marked antibody IgG goat anti-IgG mouse. […]
The number of IEA-positive cells was recorded. The nuclei which were positive against the CMV-specific antigen were counted by means of the fluorescence microscope, magnification 25×, in aqueous phase.

[2] = tested on: Herpes-Virus (Herpes Simplex, HSV); experiment: Antiviral/virucidal efficacy against HSV, plaque reduction in VERO cells; format: cell-based; details: compared to simple medium, 2880 min
Description: (§1) The antiviral/virucidal efficacy against HSV of an aqueous microemulsion prepared with appropriate MARIGENOL®-concentrates was assessed on a confluent monolayer culture of VERO cells (i.e. "African green monkey kidney cells"). The host cells were pretreated during 3 h at 4° C. with an inventive microemulsion or with culture medium alone and then infected with HSV at a constant dose of 10^4 plaque forming units (PFU). After virus absorption during 1 h, and subsequent addition of 2% methylcellulose in order to limit virus spreading, cells were cultured in MEM medium+2% foetal calf serum for 48 h, then fixed and stained with 1% crystal violet in methanol. The reduction of viral titre was expressed as percent reduction of plaques of lysis observed in pre-treated cells, compared to controls.
Infection was also detected by IFA at 24 h after inoculation, using a Mab specific for a glycoprotein common to HSV-1/HSV-2 (clone FQ 12, Argene Biosoft, BIOLINE, Torino).
The following test substances were assessed as concentrates in aqueous dilution (starting with a microemulsion 1:100): […]

VERO cells = experiment: Cell lysis in VERO cell layers; format: cell-based, African green monkey; details: dilution 1:1'000; plaque reduction table
Description: as §1

[3] = Micellar size by dynamic light scattering; format: physicochemical; details: aqueous emulsion 1:100 of 1%-concentrate; DLS
Description: [Measurement conducted with QLS=quasi-elastic, dynamic light scattering; tests performed at the Federal Institute for Technology, Zurich, Institute for Polymers (Prof. Dr. Pier Luigi LUISI and Prof. Dr. Peter SCHURTENBERGER)]. See: "Mode-selective dynamic light scattering; theory versus experimental realization", Thomas Gisler, et al., Applied Optics/Vol. 34, No. 18/Jun. 20, 1995, pp. 3546-3553.
Measurement conducted with aqueous emulsions 1:100 (CMC-marginal value for a homogenous spreading of the surfactants), prepared from the 1%-concentrates. Method: dynamic light scattering (DLS) in 3 angular positions each (60°, 90° and 120°), and with 10 single measurements taken each time. The instrument is a specially equipped "Fiberoptic Spectrometer" of the Institute for Polymers. Description of the method and the instrument, see: "Mode-selective dynamic light scattering: theory versus experimental realization". Thomas Gisler et al., Applied Optics/Vol. 34, No. 18/Jun. 20, 1995.

[4] = tested on: Py6 cells (Virus transformed 3T3 mouse-fibroblasts); experiment: Test of cell toxicity / cytotoxicity of MARIGENOL concentrates on Py6 cells (plaque assay, serial dilution); format: cell-based; details: for in dilution active up to 1: (microemulsion ME 1:100): dilution of ME 1:100, given in Mio.
Description: A biological assay system using microtiter plates and serial dilutions has been developed. Batches of 10^4 tumour cells per ml were set up in culture medium RPMI 1640 and inactivated with 10% of fetal calf serum (GIBCO); they are spread at a density low enough to enable them to grow during the assay, in non-confluent monolayers. Samples are added after 6 to 24 hours, with 100 μl per row, to which 100 μl of medium are added in the first well. Half of this mixture is withdrawn, transferred into the next well and again treated with 100 μl of medium, etc.
[…] They are then stained and fixed using 0.1% crystal violet (Fluka, Buchs) in a solution of 70% of methanol, 1% of formaldehyde and 29% of water. The samples are evaluated under the microscope, magnification 300×. The greatest cytotoxic dilution is determined. The samples can also be evaluated quantitatively by means of scanning and absorption measurement in a spectrophotometer.
N.B.: On the subject of the eternalized Py6-cells cf.: "Biochemistry", Coordinating Editor Geoffrey L. Zubay, Addison-Wesley Publishing Company, 1983, p.1079.

LEUKEMIA K 562 = experiment: Vitality/proliferation test (Tritium), leukemia K 562; format: cell-based, human; details: controls 50'037 cpm
Description: (§2) 4.0 Comparative assays with human tumor cell lines
(§3) VITALITY TEST/1%-MARIGENOL-CONCENTRATE
(§4) 1 × 10^4 cells per well
(§5) Proliferation test (Tritium: 1 μCi/well H^+)

LEUKEMIA DAUDI-LINE = experiment: Vitality/proliferation test (Tritium), leukemia Daudi-line; format: cell-based, human; details: controls 23'090 cpm
Description: as §2, §3, §4, §5

[5] = cited from earlier work

**Q.** Which “protective action on MT-4 cells against HIV” value (HIV strain III B) does the source give for `CCCCCC(=O)O[C@H]1CC[C@@]2(C)C(=CC[C@H]3[C@@H]4CC[C@H]([C@H](C)CC[C@@H](CC)C(C)C)[C@@]4(C)CC[C@@H]32)C1` [β-Sitosteryl-Caproylate] here?
**A.** very remarkable results

**Q.** And the “protective action on MT-4 cells against HIV” value (HIV strain III B; listed as β-Sitosterypl-Caproylate)?
**A.** Similar, though less remarkable results

**Q.** Which results are given for `CCCCCCCCCCCCCCCC(=O)O[C@H]1CC[C@@]2(C)C(=CC[C@H]3[C@@H]4CC[C@H]([C@H](C)CC[C@@H](CC)C(C)C)[C@@]4(C)CC[C@@H]32)C1` [β-SITOSTERYL-PALMITATE, 3β-Stigmast-5-en-3-palmitate]?
**A.** RESIDUAL HIV TITRE (CCID50) ([1]; concentrate 1'000 ppm, active substance 10 ppm): 2 CCID50; RESIDUAL HIV TITRE (CCID50) ([1]; concentrate 10 ppm, active substance 0.1 ppm): 120 CCID50; RESIDUAL HIV TITRE (CCID50) ([1]; concentrate 50 ppm, active substance 0.5 ppm): 76 CCID50; RESIDUAL HIV TITRE (CCID50) ([1]; concentrate 100 ppm, active substance 1 ppm): 50 CCID50; Number of the positive nuclei (anti P-72 antigens) (human CMV-strain AD169; microemulsion 1:1'000 = 1'000 ppm concentrate): 0; Number of the positive nuclei (anti P-72 antigens) (human CMV-strain AD169; microemulsion 1:10'000 = 100 ppm concentrate): 2; Percent reduction of plaques in VERO cell monolayers ([2]; dilution 1:10'000): 24%; Percent reduction of plaques in VERO cell monolayers ([2]; dilution 1:100'000): 0%; Cell-Lysis (VERO cells): Cell-Lysis

**Q.** With `CCCCCCCC/C=C\CCCCCCCC(=O)Oc1ccc2c(c1)CC[C@@H]1[C@@H]2CC[C@]2(C)[C@@H](OC(=O)CCCCCCC/C=C\CCCCCCCC)CC[C@@H]12` [β-ESTRADIOL-DI-OLEATE] as the molecule, how does the “MICELLAR SIZE in nm” value [3] read?
**A.** 2-3 nm

**Q.** With `C=CCCCCCCCCC(=O)Oc1cc(OC(=O)CCCCCCCCC=C)c2c(=O)c(OC(=O)CCCCCCCCC=C)c(-c3ccc(OC(=O)CCCCCCCCC=C)c(OC(=O)CCCCCCCCC=C)c3)oc2c1` [QUERCETIN-PENTA-UNDECENOATE, Quercetin-penta-10-undecenoate] as the molecule, how does the “in dilution active up to 1: (calculated on active substance content, A.S.)” value ([4]; 24 h exposure) read?
**A.** 25.6 Mio.

**Q.** What about the “in dilution active up to 1: (calculated on active substance content, A.S.)” value ([4]; 48 h exposure) of the same molecule?
**A.** 100 Mio.

**Q.** What about the “in dilution active up to 1: (microemulsion ME 1:100)” value ([4]; 48 h exposure) of the same molecule?
**A.** 1 Mio.

**Q.** What about the “in dilution active up to 1: (calculated on active substance content, A.S.)” value ([4]; 72 h exposure) of the same molecule?
**A.** 200 Mio.

**Q.** What about the “in dilution active up to 1: (microemulsion ME 1:100)” value ([4]; 72 h exposure) of the same molecule?
**A.** 2 Mio.

**Q.** What about the “MICELLAR SIZE in nm” value [3] of the same molecule?
**A.** 2-3 nm

**Q.** What about the “Percent reduction of plaques in VERO cell monolayers” value ([2]; dilution 1:10'000) of the same molecule?
**A.** 48%

**Q.** And the “Percent reduction of plaques in VERO cell monolayers” value ([2]; dilution 1:100'000)?
**A.** 0%

**Q.** And the Cell-Lysis (VERO cells)?
**A.** Cell-Lysis

**Q.** Which “in dilution active up to 1: (calculated on active substance content, A.S.)” value ([4]; 24 h exposure) does the source give for `CC(=O)O[C@H]1C(=O)[C@@]2(C)[C@H]([C@H](OC(=O)c3ccccc3)[C@]3(O)C[C@H](O)C(C)=C1C3(C)C)[C@]1(OC(C)=O)CO[C@@H]1C[C@@H]2O` [BACCATIN III-A.S., Baccatin-III] here?
**A.** 12.8 Mio.

**Q.** What about the “in dilution active up to 1: (calculated on active substance content, A.S.)” value ([4]; 48 h exposure) of the same molecule?
**A.** 12.8 Mio.

**Q.** What about the “in dilution active up to 1: (calculated on active substance content, A.S.)” value ([4]; 72 h exposure) of the same molecule?
**A.** 100 Mio.

**Q.** And the “in dilution active up to 1: (microemulsion ME 1:100)” value ([4]; 72 h exposure)?
**A.** 1 Mio.

**Q.** What about the Proliferation test % (LEUKEMIA K 562; 10^-3) of the same molecule?
**A.** 1.3%

**Q.** What about the Proliferation test cpm (LEUKEMIA K 562; 10^-3) of the same molecule?
**A.** 680 cpm

**Q.** And the Proliferation test % (LEUKEMIA K 562; 10^-4)?
**A.** 1.5%

**Q.** And the Proliferation test cpm (LEUKEMIA K 562; 10^-4)?
**A.** 757 cpm

**Q.** What about the Proliferation test % (LEUKEMIA K 562; 10^-5) of the same molecule?
**A.** 6.3%

**Q.** And the Proliferation test % (LEUKEMIA DAUDI-LINE; 10^-3)?
**A.** 3.0%

**Q.** And the Proliferation test cpm (LEUKEMIA DAUDI-LINE; 10^-3)?
**A.** 708 cpm

**Q.** And the Proliferation test % (LEUKEMIA DAUDI-LINE; 10^-4)?
**A.** 3.4%

**Q.** What about the Proliferation test cpm (LEUKEMIA DAUDI-LINE; 10^-4) of the same molecule?
**A.** 795 cpm

**Q.** And the Proliferation test % (LEUKEMIA DAUDI-LINE; 10^-5)?
**A.** 61.4%

**Q.** And the solubility in water [5]?
**A.** very low
